US8735388B2, “Heterocyclic compounds with affinity to muscarinic receptors” (Abbvie B. V. A., priority 2007, dated 2014)

What was measured:
[1] = Stability in human liver homogenate (metabolic stability in vitro); type: in vitro ADME; conditions: read-out: t ½
Description: DÖRJE, F., WESS, J., LAMBRECHT, G., TACKE, R., […], E. and BRANN, M. R. (1991) Antagonist binding profiles of five cloned human muscarinic receptor subtypes. J. Pharmacol. Exp. Ther., 256: 727-733. • […], M. H. (1990) Rat hippocampal muscarinic autoreceptors are similar to the M2 (cardiac) subtype: comparison with hippocampal M1, atrial M2 and ileal M3 receptors. Brit. J. Pharmacol., 99: 753-761. • PERALTA, E. G., ASHKENAZI, A., WINSLOW, J. W., SMITH, D. H., […], J. and CAPON, D. J. (1987) Distinct primary structures, ligand-binding properties and tissue-specific expression of four human muscarinic acetylcholine receptors. EMBO. J., 6: 3923-3929. Determination of Metabolic Stability (In Vitro)
Method used according to procedures described by DI, L. et al., Journal of Biomolecular Screening, Vol. 8, No. 4, 453-462 (2003).

[2] = in words, background section; cited from earlier work
[3] = test system: Muscarine M1 (GPCR-A-MA-ACH M1); assay: Muscarine M1 functional assay, isolated organ (vas deferens, field-stimulated); conditions: assay characteristic; Muscarine M1, rabbit vas deferens, inhibition of twitch contraction; read-out: Reference Agonist Ligand EC50
Procedure: Compounds were dissolved in DMSO (10 mM) and diluted in assay buffer to test concentration. Prime testing was at 1 μM; for actives in antagonist mode (PI, percent inhibition with respect to reference agonist and blank>30%) as well as actives in agonist mode (PS, percent stimulation with respect to reference agonist and blank>30%) testing was continued at lower concentrations in 10-fold dilutions: 0.1 μM, 0.01 μM, etc.
The tissues were exposed to a maximal concentration of the respective reference agonist to verify responsiveness and to obtain a control response. Following extensive washings and recovery of the initial state, the tissues were exposed to the test compounds or the same agonist. […]
The parameters measured were the maximum change in the amplitude of the electrically-evoked contractions (M1 and M2 receptor assays) or in tension (M3 receptor assay) induced by each compound concentration. The results are expressed as a percent of the control agonist-induced response. The EC50 values of the reference agonists (concentration producing a half-maximum response) and IC50 values of the reference antagonists (concentration producing a half-maximum inhibition of the agonist-induced response) were calculated by […] analysis of their concentration-response curves.

[4] = molecular target: T1, Muscarine M3 (GPCR-A-MA-ACH M3) (Cavia porcellus, UniProt H0W1Z3); assay: Muscarine M3 functional assay, isolated organ (ileum), agonist and antagonist mode; design: species or system Guinea Pig
T1 construct: from tissue; host or cells: guinea pig ileum

[5] = molecular target: T2, Muscarine M2 (GPCR-A-MA-ACH M2) (Homo sapiens, UniProt P08172); conditions: read-out: Ligand Kd; cited from earlier work
T2 construct: expressed in transfected cells; host or cells: CHO cells
T2 sequence (P08172 1-466): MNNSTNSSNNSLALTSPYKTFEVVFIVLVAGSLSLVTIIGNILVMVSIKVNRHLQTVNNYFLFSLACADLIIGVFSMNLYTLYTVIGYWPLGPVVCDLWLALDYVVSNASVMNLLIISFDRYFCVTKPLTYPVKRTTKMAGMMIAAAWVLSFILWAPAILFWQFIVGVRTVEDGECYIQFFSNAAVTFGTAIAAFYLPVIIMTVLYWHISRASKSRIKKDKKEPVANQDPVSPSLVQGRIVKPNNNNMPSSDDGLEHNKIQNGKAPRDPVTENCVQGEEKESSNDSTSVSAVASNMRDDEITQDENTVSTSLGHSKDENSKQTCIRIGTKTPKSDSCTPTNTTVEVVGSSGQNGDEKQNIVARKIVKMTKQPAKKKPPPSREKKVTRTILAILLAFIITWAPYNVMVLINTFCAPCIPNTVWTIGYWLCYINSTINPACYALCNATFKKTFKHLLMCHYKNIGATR

[6] = molecular target: T3, Muscarine M4 (GPCR-A-MA-ACH M4) (Homo sapiens, UniProt P08173); conditions: read-out: Ligand Kd; cited from earlier work
T3 construct: expressed in transfected cells; host or cells: CHO cells
T3 sequence (P08173 1-479): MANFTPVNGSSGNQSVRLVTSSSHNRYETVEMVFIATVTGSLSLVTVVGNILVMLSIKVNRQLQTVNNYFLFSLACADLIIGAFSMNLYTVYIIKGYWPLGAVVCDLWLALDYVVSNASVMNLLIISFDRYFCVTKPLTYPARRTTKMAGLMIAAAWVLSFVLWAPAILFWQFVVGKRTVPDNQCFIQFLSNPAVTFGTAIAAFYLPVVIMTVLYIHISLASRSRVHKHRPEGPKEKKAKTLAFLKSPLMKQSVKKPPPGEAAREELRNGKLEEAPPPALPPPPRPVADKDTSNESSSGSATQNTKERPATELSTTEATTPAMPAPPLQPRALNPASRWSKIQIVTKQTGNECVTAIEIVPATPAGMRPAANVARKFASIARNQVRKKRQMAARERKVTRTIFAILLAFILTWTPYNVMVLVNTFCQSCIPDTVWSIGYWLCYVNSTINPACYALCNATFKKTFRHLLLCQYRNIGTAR

T1 sequence (H0W1Z3 1-590): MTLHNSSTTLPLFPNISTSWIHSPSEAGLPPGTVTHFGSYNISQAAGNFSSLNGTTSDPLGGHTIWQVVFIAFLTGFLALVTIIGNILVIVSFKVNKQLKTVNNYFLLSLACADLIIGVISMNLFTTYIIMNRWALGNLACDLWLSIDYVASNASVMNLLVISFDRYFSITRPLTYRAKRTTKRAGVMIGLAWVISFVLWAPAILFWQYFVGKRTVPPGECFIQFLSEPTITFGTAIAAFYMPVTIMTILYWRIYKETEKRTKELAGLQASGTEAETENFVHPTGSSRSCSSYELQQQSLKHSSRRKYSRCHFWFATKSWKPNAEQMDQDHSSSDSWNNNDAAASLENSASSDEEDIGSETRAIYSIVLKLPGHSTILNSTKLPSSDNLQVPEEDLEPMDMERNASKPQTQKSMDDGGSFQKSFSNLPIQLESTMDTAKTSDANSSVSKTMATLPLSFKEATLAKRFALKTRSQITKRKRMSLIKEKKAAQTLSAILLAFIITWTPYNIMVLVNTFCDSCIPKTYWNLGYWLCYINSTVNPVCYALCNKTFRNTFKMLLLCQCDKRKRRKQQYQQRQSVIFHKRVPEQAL

CCCCCCOc1nsnc1C1=CCCN(C)C1 [Xanomeline, reference compound]
half-life [1]: 17 min | (in vitro) metabolic stability [2]: relatively low

C[N+](C)(C)CC#CCOC(=O)Nc1cccc(Cl)c1.[Cl-] [McN-A-343, reference compound]
EC50 [3]: 250 nM | Cell funct. Musc. M3 Agonism pEC50 [4]: 6.9

CCCN(CCC)CC1CCCCN1CCNC(=O)N1c2ccccc2C(=O)Nc2cccnc21 (stereo not drawn) [Compound 3H-AFDX384, 3H-AFDX384]
Kd [5]: 4.3 nM

3H-Oxotremorine
Kd [6]: 4.5 nM
